Legend:
[1] = tested on: SKOV-3 ovarian cancer xenograft; test: In vivo therapeutic study (PTT/PDT with or without DOX); design: species or system nude mice; settings: DOX 2.5 mg/kg, NP 25 mg/kg, light 0.25 W cm^−2 for 2 min; versus PBS control
Method: Transgenic mice with mammary cancer (FVB/n Tg(MMTV-PyVmT) and nude mice bearing SKOV-3 ovarian cancer xenograft were used for the in vivo therapeutic studies. When tumor volumes reached 4-5 mm in transgenic mice, crosslinked NPs with and without 2.5 mg/kg DOX were injected via tail vein once per week for 3 doses. After 24 hrs, tumors were illuminated with a diode laser system (Applied Optronics, Newport, Conn.) at 690 nm under general anaesthesia. […] Tumor temperatures were recorded with an infrared camera (Flir). Intratumoral ROS production after irradiation was measured using 2′,7′-dichlorofluorescin diacetate (DCF) mixed with 100 μL of tissue lysates derived from tumors treated with NPs and PBS. In some cases, the blood of the mice was drawn and the ROS and heat production in blood after irradiation were measured at predetermined time points. The hemolysis was also followed. Tumor volume was measured twice a week and mice were sacrificed once tumor size reached 1000 mm^3. Tumors were harvested for histopathological evaluation 24 hours post-irradiation. The SKOV-3 ovarian cancer xenograft model was established by injecting one million cells subcutaneously at lower flank area. […] Tumor sizes and body weight were measured twice a week, while mice were monitored daily for potential signs of toxicity. […]

[2] = tested on: SKOV-3 ovarian cancer cells; test: Cytotoxicity under dark conditions; format: cell-based, human; settings: up to 1.0 mg/mL, 2 hrs exposure plus 22 hrs
Excerpt: K9TCC-Pu-In and 5637 bladder cancer cell lines and SKOV-3 ovarian cancer cell lines were used to evaluate the photosensitizing function of nano-porphyrins. […] 5-aminolevulinic acid (5-ALA), the traditional photodynamic diagnosis/therapy agent, was used as a control. In another experiments, DOX loaded nanoporphyrins were used to treat the cancer cells followed by light exposure. […]

Q: How did the tumor growth [1] turn out when `COc1cccc2c1C(=O)c1c(O)c3c(c(O)c1C2=O)C[C@@](O)(C(=O)CO)C[C@@H]3O[C@H]1C[C@H](N)[C@H](O)[C@H](C)O1` [free DOX, doxorubicin] was run?
A: slower tumor growth

Q: pyropheophorbide-a [free Por] was tested. Which “cytotoxicity without light irradiation” value [2] did it give?
A: significant cytoxicity
